Tests used:
[1] = Kinetic solubility of the compound in PBS buffer; format: physicochemical
[2] = target: Tumour suppressor p53/oncoprotein Mdm2 (Homo sapiens, UniProt Q00987); experiment: Inhibition of 6His-tagged MDM2 (1 to 118) interaction to FITC-tagged p53 (17 to 26) (unknown origin) after 30 mins by fluorescence polarization assay; format: protein assay
Chain of Tumour suppressor p53/oncoprotein Mdm2 (P04637 whole entry): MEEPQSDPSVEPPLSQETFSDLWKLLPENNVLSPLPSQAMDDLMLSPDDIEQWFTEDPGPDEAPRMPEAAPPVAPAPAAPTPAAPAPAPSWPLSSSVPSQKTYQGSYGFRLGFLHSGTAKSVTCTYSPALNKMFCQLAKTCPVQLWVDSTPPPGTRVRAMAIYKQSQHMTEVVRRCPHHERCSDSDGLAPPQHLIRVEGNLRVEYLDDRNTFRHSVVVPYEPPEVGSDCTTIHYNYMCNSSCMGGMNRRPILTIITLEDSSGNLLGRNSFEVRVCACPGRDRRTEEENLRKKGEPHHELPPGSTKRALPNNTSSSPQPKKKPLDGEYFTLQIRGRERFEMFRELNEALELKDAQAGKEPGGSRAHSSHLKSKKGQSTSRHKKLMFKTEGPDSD
Chain of Tumour suppressor p53/oncoprotein Mdm2 (Q00987 whole entry): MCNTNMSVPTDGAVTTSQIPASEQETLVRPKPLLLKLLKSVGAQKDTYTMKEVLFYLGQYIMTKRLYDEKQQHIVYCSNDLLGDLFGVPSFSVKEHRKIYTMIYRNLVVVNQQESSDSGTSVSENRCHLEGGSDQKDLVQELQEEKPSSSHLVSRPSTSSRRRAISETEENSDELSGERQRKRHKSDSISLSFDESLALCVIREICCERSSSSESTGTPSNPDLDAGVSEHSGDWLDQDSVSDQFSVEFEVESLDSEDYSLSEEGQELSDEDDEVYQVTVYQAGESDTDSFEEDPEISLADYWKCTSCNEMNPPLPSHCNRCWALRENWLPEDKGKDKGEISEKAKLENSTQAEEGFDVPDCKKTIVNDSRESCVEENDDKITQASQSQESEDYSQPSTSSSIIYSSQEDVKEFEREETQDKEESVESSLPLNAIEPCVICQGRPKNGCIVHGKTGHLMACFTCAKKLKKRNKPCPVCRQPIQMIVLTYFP

Row | SMILES | Kinetic_solubility [1] [Ug/ml] | IC50 [2] [µM]
1 | CCOc1ccccc1-c1cc(-c2cc(C(=O)O)ccc2OC)nn1CCc1ccccc1 | > 0.2 | 232
2 | CCOc1ccccc1-c1cc(-c2cc(C(=O)O)ccc2OC)nn1Cc1ccccc1 | 0.039 | 238
3 | CCOc1ccccc1-c1cc(-c2cc(CC(=O)O)ccc2OC)nn1Cc1ccccc1 | 0.138 | 288
4 | CCOc1ccc(C(=O)O)cc1-c1cc(-c2cccc(OC)c2OC)n(Cc2ccccc2)n1 | 0.138 | 295
5 | CCCOc1ccc(CC(=O)O)cc1-c1cc(-c2cccc(OC)c2OC)n(Cc2ccccc2)n1 | > 0.2 | 329
6 | CCOc1ccccc1-c1cc(-c2cc(CC(=O)O)ccc2OC)nn1CCc1ccccc1 | > 0.2 | 339
7 | CCOc1ccccc1-c1cc(-c2ccc(C(=O)O)cc2)nn1Cc1ccccc1 | 0.117 | 346
8 | CCOc1ccc(CCC(=O)O)cc1-c1cc(-c2cccc(OC)c2OC)n(Cc2ccccc2)n1 | > 0.2 | 353
9 | COc1ccc(CCC(=O)O)cc1-c1cc(-c2cccc(OC)c2OC)n(Cc2ccccc2)n1 | 0.169 | 449
10 | COc1ccc(CC(=O)O)cc1-c1cc(-c2ccc(F)cc2)n(Cc2ccccc2)n1 | > 0.2 | 595
11 | CCCCOc1ccc(C(=O)O)cc1-c1cc(-c2cccc(OC)c2OC)n(CCc2ccccc2)n1 | 0.066 | 14.2
12 | CCOc1ccccc1-c1cc(-c2cc(C(=O)O)ccc2OCC(C)C)nn1CCc1ccccc1 | 0.015 | 14.2
13 | COc1ccc(CCC(=O)O)cc1-c1cc(-c2ccc(F)cc2)n(Cc2ccccc2)n1 | 0.066 | 17
14 | COc1ccc(CCC(=O)O)cc1-c1cc(-c2ccc(Cl)cc2)n(CCc2ccccc2)n1 | 0.046 | 38.9
15 | O=C(O)CCc1ccc(OCc2cccc(Cl)c2)c(-c2cc(-c3ccc(F)cc3)n(Cc3ccccc3)n2)c1 | < 0.015 | 51.9
16 | CCCCOc1ccc(CC(=O)O)cc1-c1cc(-c2ccccc2OCC)n(CCc2ccccc2)n1 | 0.096 | 54.1
17 | CCOc1ccccc1-c1cc(-c2cc(CC(=O)O)ccc2OCc2cccc(Cl)c2)nn1Cc1ccccc1 | < 0.015 | 54.4
18 | COc1cccc(-c2cc(-c3cc(CC(=O)O)ccc3OCC(C)C)nn2CCc2ccccc2)c1OC | 0.056 | 68.3
19 | CCCOc1ccc(C(=O)O)cc1-c1cc(-c2ccccc2OCC)n(Cc2ccccc2)n1 | 0.096 | 68.8
20 | CCCOc1ccc(C(=O)O)cc1-c1cc(-c2cccc(OC)c2OC)n(Cc2ccccc2)n1 | > 0.2 | 79.3
21 | CCOc1ccccc1-c1cc(-c2ccc(C(=O)O)cc2)nn1CCc1ccccc1 | > 0.2 | 91.2
22 | CCOc1ccc(CCC(=O)O)cc1-c1cc(-c2ccc(F)cc2)n(Cc2ccccc2)n1 | < 0.015 | 101
23 | CCOc1ccc(C(=O)O)cc1-c1cc(-c2ccccc2OCC)n(Cc2ccccc2)n1 | 0.066 | 111
24 | CCCCOc1ccc(CC(=O)O)cc1-c1cc(-c2cccc(OC)c2OC)n(CCc2ccccc2)n1 | 0.117 | 116
25 | CCCCOc1ccc(CC(=O)O)cc1-c1cc(-c2cccc(OC)c2OC)n(Cc2ccccc2)n1 | > 0.2 | 118
26 | COc1cccc(-c2cc(-c3cc(CC(=O)O)ccc3OCC(C)C)nn2Cc2ccccc2)c1OC | > 0.2 | 120
27 | O=C(O)c1ccc(-c2cc(-c3ccc(F)cc3)n(CCc3ccccc3)n2)cc1 | 0.096 | 128

Continued by falling IC50 [2], values first:

Row | Kinetic_solubility [1] [Ug/ml] | IC50 [2] [µM] | SMILES
28 | > 0.2 | 1020 | COc1ccc(C(=O)O)cc1-c1cc(-c2cccc(OC)c2OC)n(Cc2ccccc2)n1
29 | > 0.2 | 967 | COc1ccc(CC(=O)O)cc1-c1cc(-c2cccc(OC)c2OC)n(Cc2ccccc2)n1
30 | > 0.2 | 727 | COc1ccc(CC(=O)O)cc1-c1cc(-c2cccc(OC)c2OC)n(CCc2ccccc2)n1
31 | > 0.2 | 436 | COc1ccc(CCC(=O)O)cc1-c1cc(-c2cccc(OC)c2OC)n(CCc2ccccc2)n1
32 | > 0.2 | 388 | CCOc1ccccc1-c1cc(-c2cc(CCC(=O)O)ccc2OC)nn1Cc1ccccc1
33 | > 0.2 | 348 | CCOc1ccc(CC(=O)O)cc1-c1cc(-c2cccc(OC)c2OC)n(Cc2ccccc2)n1
34 | > 0.2 | 258 | CCOc1ccccc1-c1cc(-c2cc(CCC(=O)O)ccc2OC)nn1CCc1ccccc1
35 | < 0.015 | 249 | CCOc1ccccc1-c1cc(-c2cc(CC(=O)O)ccc2OCc2cccc(Cl)c2)nn1CCc1ccccc1
36 | > 0.2 | 186 | COc1ccc(C(=O)O)cc1-c1cc(-c2cccc(OC)c2OC)n(CCc2ccccc2)n1
37 | < 0.015 | 130 | O=C(O)Cc1ccc(OCc2ccccc2Cl)c(-c2cc(-c3ccc(F)cc3)n(Cc3ccccc3)n2)c1
38 | 0.102 | 105 | CCOc1ccc(CCC(=O)O)cc1-c1cc(-c2ccccc2OCC)n(CCc2ccccc2)n1
39 | > 0.2 | 102 | CCOc1ccc(CC(=O)O)cc1-c1cc(-c2ccccc2OCC)n(CCc2ccccc2)n1
40 | 0.019 | 86.6 | COc1ccc(CCC(=O)O)cc1-c1cc(-c2ccc(Cl)cc2)n(Cc2ccccc2)n1
41 | 0.066 | 72 | CCCOc1ccc(CC(=O)O)cc1-c1cc(-c2ccccc2OCC)n(CCc2ccccc2)n1
42 | 0.117 | 60.6 | CCCOc1ccc(CC(=O)O)cc1-c1cc(-c2cccc(OC)c2OC)n(CCc2ccccc2)n1
43 | 0.046 | 48.7 | CCOc1ccccc1-c1cc(-c2cc(CC(=O)O)ccc2OCC(C)C)nn1CCc1ccccc1
44 | < 0.015 | 47.8 | O=C(O)CCc1ccc(OCc2cccc(Cl)c2)c(-c2cc(-c3ccc(F)cc3)n(CCc3ccccc3)n2)c1
45 | > 0.2 | 35.8 | CCOc1ccc(CCC(=O)O)cc1-c1cc(-c2ccc(F)cc2)n(CCc2ccccc2)n1
46 | < 0.015 | 34 | COc1cccc(-c2cc(-c3cc(CCC(=O)O)ccc3OCc3cccc(Cl)c3)nn2CCc2ccccc2)c1OC
47 | < 0.015 | 31.6 | COc1cccc(-c2cc(-c3cc(CCC(=O)O)ccc3OCc3cccc(Cl)c3)nn2Cc2ccccc2)c1OC
48 | 0.032 | 16.8 | CCCCOc1ccc(C(=O)O)cc1-c1cc(-c2ccccc2OCC)n(CCc2ccccc2)n1
49 | > 0.2 | 14 | CCOc1ccc(C(=O)O)cc1-c1cc(-c2cccc(OC)c2OC)n(CCc2ccccc2)n1
50 | 0.022 | 10.7 | CCOc1ccc(C(=O)O)cc1-c1cc(-c2ccccc2OCC)n(CCc2ccccc2)n1
51 | 0.056 | 8.22 | COc1cccc(-c2cc(-c3cc(C(=O)O)ccc3OCC(C)C)nn2CCc2ccccc2)c1OC
52 | 0.117 | 6.56 | CCCOc1ccc(C(=O)O)cc1-c1cc(-c2cccc(OC)c2OC)n(CCc2ccccc2)n1
